# Measurements: patent US7367988B1, “Use of electromagnetic fields in cancer and other therapies” (The Catholic University of America, priority 2000, dated 2008)
# Read-outs that look alike come from different tables or passages of the source.
# Test system: chick embryos
# Protocol: I have investigated the effect of EM fields on the ability of taxol to create abnormalities in rapidly dividing cells. The model for this purpose was chick embryos. The embryos were incubated in the presence of a 60 Hz, 8 μT EM field. After 48 hours of continuous incubation, either dimethyl sulfoxide (DMSO) alone (controls) or Taxol dissolved in DMSO was injected. EM field incubation was continued for an additional 48 hours. At the end of 4 days incubation, embryos were visualized and classified as normal or abnormal (deformed, young, or dead).
compound,measurement,setting,value
CC(=O)O[C@H]1C(=O)[C@@]2(C)[C@H]([C@H](OC(=O)c3ccccc3)[C@]3(O)C[C@H](OC(=O)[C@H](O)[C@@H](NC(=O)c4ccccc4)c4ccccc4)C(C)=C1C3(C)C)[C@]1(OC(C)=O)CO[C@@H]1C[C@@H]2O [Taxol],Percent Abnormal Embryos,"Taxol + EM fields: 60 Hz, 8 μT for 48 hours before injection and an additional 48 hours after, embryos classified at 4 days",31.1%
same,Percent Abnormal Embryos,"Taxol alone, dissolved in DMSO, injected after 48 hours of incubation, embryos classified normal or abnormal (deformed, young, or dead) at 4 days",19.3%
same,Toxic effect of taxol with EM field exposure compared with taxol alone,in vivo,very significant increase in the toxic effect
